# From patent publication US20180203025A1, “HDL THERAPY MARKERS” (Cerenis Therapeutics Holding SA, priority 2014, published 2018)
# How the values were obtained:
# [1] = system: total plaque volume in a 30 mm segment of the target coronary artery; assay: CHI SQUARE phase II trial, IVUS first approach; assay type: in vivo, human
# From the text: (§1) 504 subjects presenting with acute chest pain or other angina equivalent symptoms, indicative of a diagnosis of ST segment elevation myocardial infarction, non-ST elevation myocardial infarction or unstable angina were enrolled. To be eligible, subjects must have angiographic evidence of coronary artery disease as defined by at least one lesion in any of the three major native coronary arteries that has >20% reduction in lumen diameter by angiographic visual estimation or prior history of percutaneous coronary intervention (“PCI”). The target vessel for PCI was not the target coronary artery for research IVUS, and any vessel with previous PCI could not be used as the target coronary artery.
# The study design is illustrated in FIG. 1. The primary endpoint was the nominal change in total plaque volume in a 30 mm segment of the target coronary artery assessed by 3 dimensional IVUS (intra-vascular ultrasound). The key secondary endpoints were % change in plaque volume and change in % atheroma volume in the target 30 mm segment, the change in total vessel volume in the target 30 mm segment, and changes in plaque, lumen and total vessel volumes from baseline in the least and most diseased 5 mm segments. Morbidity and mortality were exploratory endpoints.
# Mean total atheroma volume at baseline was 155.24±67.99 mm^3. The adjusted means for change in total atheroma volume were −2.71, −3.13, −1.50 and −3.05 mm^3 in the placebo, CER-001 3 mg/kg, CER-001 6 mg/kg and CER-001 12 mg/kg groups, respectively (p=0.81 for the prespecified primary analysis of 12 mg/kg versus placebo). There were also no differences compared to placebo for the CER-001 6 mg/kg (nominal p=0.45) and 3 mg/kg (nominal p=0.77) groups. The change in percent atheroma volume was similar among all study groups (0.02, −0.02, 0.01 and 0.19% in the placebo, CER-001 3 mg/kg (p=0.86), CER-001 6 mg/kg (p=0.95) and CER-001 12 mg/kg (p=0.53) groups (nominal p-values versus placebo).
# In contrast to the “walk-along” approach discussed below, frame pairs were individually selected for optimum readability. Frames were selected based upon absence of echogenicity (calcium) and side branches. A maximum of 31 frames were selected over a 30 mm segment, excluding the benefit of pull-backs longer than 30 mm. No pre-defined criteria were used to select the 31 frames for inclusion in analysis set when >31 frames available.
# [2] = Plasma human ApoA-I by ELISA in apoE−/− mice; assay type: in vivo, mouse
# Procedure: This study examined the kinetics of the CER-001 infusion by determining the concentration of human ApoA-I in the plasma after infusion of CER-001. The ApoA-I concentration in plasma was determined by ELISA (Assay Pro EA5201-1) following manufacturer instructions.
# ABCA1 in mouse liver = assay: ABCA1 protein content in mouse liver; assay type: in vivo; conditions: 24 hours after the last injection; increasing concentrations
# Procedure: This study examined the SR-BI and ABCA1 protein content in the liver 24 hours after the last injection of CER-001. A piece of liver (50 mg) was lysed in PBS (500 μL) by brief sonication. The sample was centrifuged (800×g for 10 minutes) and the pellet was discarded. The supernatant was centrifuged for 30 minutes at 16,000×g at 4° C. and the pellet was solubilized with PBS 1% Triton X100 (200 μL). 10 μg of solubilized pellet was loaded on SDS PAGE 10% and ABCA1 expression (ab7360—dilution 1/1000) or SR-BI expression (ab24603—dilution 1/1000) was quantified using imageJ® software.
# [3] = system: diet-induced atherosclerosis in LDL receptor knock-out mice; conditions: several infusions; cited from earlier work
# [4] = CHI SQUARE plasma ApoA-I, phospholipid and total cholesterol after infusion; assay type: in vivo, human
# From the text: as §1
# [5] = system: ABCA1 mRNA in Hepa1-6 (mouse hepatocytes); assay: ABCA1 mRNA in Hepa1-6 hepatocytes; assay type: cell-based; conditions: Study K, 250 μg/mL, 6 hours
# Procedure: HepG2 (human hepatocytes) and Hepa1-6 (mouse hepatocytes) were seeded on 6 well plates (300,000 cells/well) in DMEM 10% FCS. […] Gene expression was assayed using the protocols described in Sections 8.3.2 (RNA extraction); 8.3.4 (reverse transcription), and 8.3.5 (qPCR). ABCA1 (Taqman probe Hs01059118.m1 and Mm00442646.m1 for respectively HepG2 and Hepa1-6) and SR-BI (Taqman probe Hs00969821.m1 and Mm00450234.m1 for respectively HepG2 and Hepa1-6) expression was determined according to the manufacturer's protocol. The reference gene used is HPRT1 (Taqman probe: Mm00446968.m1) for Hepa1-6 and GAPDH (Taqman probe: Hs03929097.g1) for HepG2 cells.
# [6] = Infusion 1, preserved at Infusion 6
substance,measurement,setting,value
"CER-001: engineered recombinant human apolipoprotein A-I HDL with sphingomyelin and DPPG; protein-to-phospholipid ratio 1:2.7, 97% Sph and 3% DPPG",adjusted mean change in total atheroma volume,[1]; 3 mg/kg,−3.13 mm^3
same,change in percent atheroma volume,[1]; 3 mg/kg,−0.02%
same,adjusted mean change in total atheroma volume,[1]; 6 mg/kg,−1.50 mm^3
same,change in percent atheroma volume,[1]; 6 mg/kg,0.01%
same,adjusted mean change in total atheroma volume,[1]; 12 mg/kg,−3.05 mm^3
same,change in percent atheroma volume,[1]; 12 mg/kg,0.19%
same,human ApoA-I plasma concentration,[2]; 2-50 mg/kg,dose-dependent increase
same,human plasma ApoA-I relative to expected doses,"[2]; mouse, in vivo",expected doses of ApoA-I in plasma were retrieved
same,liver ABCA1 protein level,ABCA1 in mouse liver,increase in ABCA1 protein level
same,vascular inflammation and atherosclerosis,[3],reduce vascular inflammation and promote regression of diet-induced atherosclerosis
same,potency (plasma total cholesterol increase) relative to ETC-216,[4]; CER-001 at 3 mg/kg,comparable to ETC-216 at 15 mg/kg
same,plasma apolipoprotein A-I after IV administration,[4]; [6],increases in a dose-dependent manner
same,plasma phospholipids after IV administration,[4]; [6],increase in a dose dependent manner
same,plasma total cholesterol after IV administration,[4]; [6],increases in a dose-dependent manner
same,slope ratio of phospholipids and ApoA-I dose response curves,[4]; in vivo,2.8
same,ABCA1 mRNA level,[5],two-fold decrease
